Assay results reported in ChEMBL document CHEMBL3792365, “Dioxol and dihydrodioxin analogs of 2- and 3-phenylacetonitriles as potent anti-cancer agents with nanomolar activity against a variety of human cancer cells” (2016).

Legend:
Type in all cases: functional
[1] = Growth inhibition of human NCI-ADR-RES cells at 10 uM after 48 hrs by sulforhodamine B assay; conditions: values are per cent of control
KM12 = test: Growth inhibition of human KM12 cells at 10 uM after 48 hrs by sulforhodamine B assay; conditions: KM12, 48 h, values are per cent of control
A498 = test: Growth inhibition of human A498 cells at 10 uM after 48 hrs by sulforhodamine B assay; conditions: A498, 48 h, values are per cent of control
ACHN = test: Growth inhibition of human ACHN cells at 10 uM after 48 hrs by sulforhodamine B assay; conditions: values are per cent of control
[2] = Growth inhibition of human SW620 cells at 10 uM after 48 hrs by sulforhodamine B assay; conditions: SW-620, 48 h, values are per cent of control
[3] = Growth inhibition of human OVCAR8 cells at 10 uM after 48 hrs by sulforhodamine B assay; conditions: OVCAR-8, 48 h, values are per cent of control
786-0 = test: Growth inhibition of human 786-0 cells at 10 uM after 48 hrs by sulforhodamine B assay; conditions: 786-0, 48 h, values are per cent of control
[4] = Growth inhibition of human UO31 cells at 10 uM after 48 hrs by sulforhodamine B assay; conditions: UO-31, 48 h, values are per cent of control
[5] = Growth inhibition of human TK10 cells at 10 uM after 48 hrs by sulforhodamine B assay; conditions: TK-10, 48 h, values are per cent of control
MDA-MB-231 = test: Growth inhibition of human MDA-MB-231 cells at 10 uM after 48 hrs by sulforhodamine B assay; conditions: MDA-MB-231, 48 h, values are per cent of control
[6] = Growth inhibition of human COLO205 cells at 10 uM after 48 hrs by sulforhodamine B assay; conditions: COLO 205, 48 h, values are per cent of control
[7] = Growth inhibition of human SKOV3 cells at 10 uM after 48 hrs by sulforhodamine B assay; conditions: SK-OV-3, 48 h, values are per cent of control
SN12C = test: Growth inhibition of human SN12C cells at 10 uM after 48 hrs by sulforhodamine B assay; conditions: values are per cent of control
A549 = test: Growth inhibition of human A549/ATCC cells at 10 uM after 48 hrs by sulforhodamine B assay; conditions: A549, 48 h, values are per cent of control
[8] = Growth inhibition of human SNB19 cells at 10 uM after 48 hrs by sulforhodamine B assay; conditions: SNB-19, 48 h, values are per cent of control
MDA-MB-468 = test: Growth inhibition of human MDA-MB-468 cells at 10 uM after 48 hrs by sulforhodamine B assay; conditions: MDA-MB-468, 48 h, values are per cent of control
NCI-H226 = test: Growth inhibition of human NCI-H226 cells at 10 uM after 48 hrs by sulforhodamine B assay; conditions: NCI-H226, 48 h, values are per cent of control
[9] = Growth inhibition of human OVCAR4 cells at 10 uM after 48 hrs by sulforhodamine B assay; conditions: OVCAR-4, 48 h, values are per cent of control
[10] = Growth inhibition of human Caki1 cells at 10 uM after 48 hrs by sulforhodamine B assay; conditions: CAKI-1, 48 h, values are per cent of control
[11] = Growth inhibition of human HOP62 cells at 10 uM after 48 hrs by sulforhodamine B assay; conditions: HOP-62, 48 h, values are per cent of control
[12] = Growth inhibition of human SF268 cells at 10 uM after 48 hrs by sulforhodamine B assay; conditions: SF-268, 48 h, values are per cent of control
[13] = Growth inhibition of human SF295 cells at 10 uM after 48 hrs by sulforhodamine B assay; conditions: SF-295, 48 h, values are per cent of control
[14] = Growth inhibition of human DU145 cells at 10 uM after 48 hrs by sulforhodamine B assay; conditions: DU-145, 48 h, values are per cent of control
NCI-H322M = test: Growth inhibition of human NCI-H322M cells at 10 uM after 48 hrs by sulforhodamine B assay; conditions: values are per cent of control
[15] = Growth inhibition of human RXF393 cells at 10 uM after 48 hrs by sulforhodamine B assay; conditions: RXF 393, 48 h, values are per cent of control
K562 = test: Growth inhibition of human K562 cells at 10 uM after 48 hrs by sulforhodamine B assay; conditions: K562, 48 h, values are per cent of control
[16] = Growth inhibition of human SF539 cells at 10 uM after 48 hrs by sulforhodamine B assay; conditions: SF-539, 48 h, values are per cent of control
[17] = Growth inhibition of human HCT116 cells at 10 uM after 48 hrs by sulforhodamine B assay; conditions: HCT-116, 48 h, values are per cent of control
SK-MEL-2 = test: Growth inhibition of human SK-MEL-2 cells at 10 uM after 48 hrs by sulforhodamine B assay; conditions: SK-MEL-2, 48 h, values are per cent of control
MDA-MB-435 = test: Growth inhibition of human MDA-MB-435 cells at 10 uM after 48 hrs by sulforhodamine B assay; conditions: MDA-MB-435, 48 h, values are per cent of control
HT-29 = test: Growth inhibition of human HT-29 cells at 10 uM after 48 hrs by sulforhodamine B assay; conditions: HT-29, 48 h, values are per cent of control
SK-MEL-28 = test: Growth inhibition of human SK-MEL-28 cells at 10 uM after 48 hrs by sulforhodamine B assay; conditions: SK-MEL-28, 48 h, values are per cent of control
U-251 = test: Growth inhibition of human U251 cells at 10 uM after 48 hrs by sulforhodamine B assay; conditions: U-251, 48 h, values are per cent of control
[18] = Growth inhibition of human OVCAR5 cells at 10 uM after 48 hrs by sulforhodamine B assay; conditions: OVCAR-5, 48 h, values are per cent of control
[19] = Growth inhibition of human SNB75 cells at 10 uM after 48 hrs by sulforhodamine B assay; conditions: SNB-75, 48 h, values are per cent of control
M14 = test: Growth inhibition of human M14 cells at 10 uM after 48 hrs by sulforhodamine B assay; conditions: M14, 48 h, values are per cent of control
NCI-H460 = test: Growth inhibition of human NCI-H460 cells at 10 uM after 48 hrs by sulforhodamine B assay; conditions: NCI-H460, 48 h, values are per cent of control
[20] = Growth inhibition of human BT549 cells at 10 uM after 48 hrs by sulforhodamine B assay; conditions: BT-549, 48 h, values are per cent of control
[21] = Growth inhibition of human LOXIMVI cells at 10 uM after 48 hrs by sulforhodamine B assay; conditions: LOX IMVI, values are per cent of control
SK-MEL-5 = test: Growth inhibition of human SK-MEL-5 cells at 10 uM after 48 hrs by sulforhodamine B assay; conditions: SK-MEL-5, 48 h, values are per cent of control

Row | Compound | growth, % of control at 10 µM [1] [%] | growth, % of control at 10 µM (KM12) [%] | growth, % of control at 10 µM (A498) [%] | growth, % of control at 10 µM (ACHN) [%] | growth, % of control at 10 µM [2] [%] | growth, % of control at 10 µM [3] [%] | growth, % of control at 10 µM (786-0) [%] | growth, % of control at 10 µM [4] [%] | growth, % of control at 10 µM [5] [%] | growth, % of control at 10 µM (MDA-MB-231) [%] | growth, % of control at 10 µM [6] [%] | growth, % of control at 10 µM [7] [%] | growth, % of control at 10 µM (SN12C) [%] | growth, % of control at 10 µM (A549) [%] | growth, % of control at 10 µM [8] [%] | growth, % of control at 10 µM (MDA-MB-468) [%] | growth, % of control at 10 µM (NCI-H226) [%] | growth, % of control at 10 µM [9] [%] | growth, % of control at 10 µM [10] [%] | growth, % of control at 10 µM [11] [%] | other results
1 | COc1ccc(/C=C(\C#N)c2ccc3c(c2)OCO3)cc1 | 11.6 | 30 | -6.2 | 45.7 | 19.6 | 26.7 | 50.3 | 28 | 32.2 | 49.6 | 11.9 | 28.8 | 37.2 | 32.3 | 46 | 1.2 | 71.8 | 67.3 | 24.8 | 43.8 | growth, % of control at 10 µM [12]: 38.5%; growth, % of control at 10 µM [13]: 11.2%; growth, % of control at 10 µM [14]: 28.3%; growth, % of control at 10 µM (NCI-H322M): 35.7%; growth, % of control at 10 µM [15]: 23.3%; growth, % of control at 10 µM (K562): 15.8%; growth, % of control at 10 µM [16]: -13.8%; growth, % of control at 10 µM [17]: 17.4%; growth, % of control at 10 µM (SK-MEL-2): -17.7%; growth, % of control at 10 µM (MDA-MB-435): -29.1%; growth, % of control at 10 µM (HT-29): 6%; growth, % of control at 10 µM (SK-MEL-28): 40.7%; growth, % of control at 10 µM (U-251): 16.5%; growth, % of control at 10 µM [18]: 49.6%; growth, % of control at 10 µM [19]: 2.2%; growth, % of control at 10 µM (M14): 10.5%; growth, % of control at 10 µM (NCI-H460): 15.5%; growth, % of control at 10 µM [20]: 30.3%; growth, % of control at 10 µM [21]: 33.3%; growth, % of control at 10 µM (SK-MEL-5): 16.4%
2 | COc1ccc(/C(C#N)=C/c2ccc3c(c2)OCO3)cc1 | 75.3 | 63.6 | 63.3 | 95.3 | 84.9 | 94.7 | 95.4 | 72.8 | 85.7 | 68.7 | 76.2 | 88.6 | 84.3 | 71.2 | 49.4 | 48.6 | 86.6 | 76.4 | 78.2 | 86.6 | growth, % of control at 10 µM [12]: 92%; growth, % of control at 10 µM [13]: 80.8%; growth, % of control at 10 µM [14]: 95%; growth, % of control at 10 µM (NCI-H322M): 94.7%; growth, % of control at 10 µM [15]: 91.4%; growth, % of control at 10 µM (K562): 37.9%; growth, % of control at 10 µM [16]: 83.7%; growth, % of control at 10 µM [17]: 64.9%; growth, % of control at 10 µM (SK-MEL-2): 90.1%; growth, % of control at 10 µM (MDA-MB-435): 77.9%; growth, % of control at 10 µM (HT-29): 64.5%; growth, % of control at 10 µM (SK-MEL-28): 81.4%; growth, % of control at 10 µM (U-251): 80.9%; growth, % of control at 10 µM [18]: 93.9%; growth, % of control at 10 µM [19]: 80.8%; growth, % of control at 10 µM (M14): 10.4%; growth, % of control at 10 µM (NCI-H460): 64.3%; growth, % of control at 10 µM [20]: 74.7%; growth, % of control at 10 µM [21]: 102%; growth, % of control at 10 µM (SK-MEL-5): 91.4%
3 | COc1ccc(/C(C#N)=C/c2ccc3c(c2)OCCO3)cc1OC | 24.5 | 30.6 | -4.1 | 51.3 | 15.5 | 30.1 | 39.3 | 41.8 | 45.7 | 63 | -1.3 | 20 | 56.7 | 40 | 53.2 | -11.4 | 71.1 | 69.3 | 17.6 | 36.9 | growth, % of control at 10 µM [12]: 53.2%; growth, % of control at 10 µM [13]: -14%; growth, % of control at 10 µM [14]: 20.7%; growth, % of control at 10 µM (NCI-H322M): 34.5%; growth, % of control at 10 µM [15]: 14.9%; growth, % of control at 10 µM (K562): 11.6%; growth, % of control at 10 µM [16]: 5.6%; growth, % of control at 10 µM [17]: 22.3%; growth, % of control at 10 µM (SK-MEL-2): 19.4%; growth, % of control at 10 µM (MDA-MB-435): -17.6%; growth, % of control at 10 µM (HT-29): 6.6%; growth, % of control at 10 µM (SK-MEL-28): 61.7%; growth, % of control at 10 µM (U-251): 19.9%; growth, % of control at 10 µM [18]: 73.5%; growth, % of control at 10 µM [19]: 2.2%; growth, % of control at 10 µM (M14): 19.7%; growth, % of control at 10 µM (NCI-H460): 12.4%; growth, % of control at 10 µM [20]: 19.2%; growth, % of control at 10 µM [21]: 44.9%; growth, % of control at 10 µM (SK-MEL-5): 16.8%
